In PMC9310846, “Photoaffinity Capture Compounds to Profile the Magic Spot Nucleotide Interactomes” (Angewandte Chemie (International Ed. in English), 2022):

How the values were obtained:
[1] = molecular target: T1, ApaH (bis(5′‐nucleosyl)‐tetraphosphatase) (Escherichia coli, UniProt P05637); test: inhibition of Ap4A hydrolysis by ApaH; pGpp is also the product of pppGpp cleavage; type: biochemical
T1 sequence (P05637 1-280): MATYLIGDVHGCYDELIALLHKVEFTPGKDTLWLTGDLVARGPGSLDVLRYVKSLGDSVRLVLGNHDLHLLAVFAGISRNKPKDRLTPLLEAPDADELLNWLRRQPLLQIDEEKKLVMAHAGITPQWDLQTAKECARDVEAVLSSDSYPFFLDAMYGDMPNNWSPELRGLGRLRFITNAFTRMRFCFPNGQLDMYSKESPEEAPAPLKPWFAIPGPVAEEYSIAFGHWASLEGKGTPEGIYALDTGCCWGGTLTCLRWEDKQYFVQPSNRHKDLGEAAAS

[2] = molecular target: T1, ApaH (bis(5′‐nucleosyl)‐tetraphosphatase); test: LC-MS assay of Ap4A hydrolysis by […] ApaH; type: biochemical
[3] = molecular target: T1, ApaH (bis(5′‐nucleosyl)‐tetraphosphatase); test: LC-MS assay of Ap4A hydrolysis by […] ApaH; pppGpp is also hydrolysed to pGpp (KM […]); type: biochemical
purified protein = substrate: Nc1nc2c(ncn2[C@@H]2O[C@H](COP(=O)(O)OP(=O)(O)OP(=O)(O)O)[C@@H](O)[C@H]2O)c(=O)[nH]1; test: purified protein; type: biochemical, Escherichia coli; conditions: Co2+

Nc1nc2c(ncn2[C@@H]2O[C@H](COP(=O)(O)O)[C@@H](OP(=O)(O)OP(=O)(O)O)[C@H]2O)c(=O)[nH]1 [pGpp]
IC50 [1]: 190 ± 30 µM

Nc1nc2c(ncn2[C@@H]2O[C@H](COP(=O)(O)OP(=O)(O)O)[C@@H](OP(=O)(O)OP(=O)(O)O)[C@H]2O)c(=O)[nH]1 [ppGpp]
IC50 [2]: 21 ± 7 µM

Nc1nc2c(ncn2[C@@H]2O[C@H](COP(=O)(O)OP(=O)(O)OP(=O)(O)O)[C@@H](OP(=O)(O)OP(=O)(O)O)[C@H]2O)c(=O)[nH]1 [pppGpp]
IC50 [3]: 8 ± 3 µM

B1: ApaH (bis(5′‐nucleosyl)‐tetraphosphatase) (Escherichia coli K-12) (protein)
chain: MATYLIGDVHGCYDELIALLHKVEFTPGKDTLWLTGDLVARGPGSLDVLRYVKSLGDSVRLVLGNHDLHLLAVFAGISRNKPKDRLTPLLEAPDADELLNWLRRQPLLQIDEEKKLVMAHAGITPQWDLQTAKECARDVEAVLSSDSYPFFLDAMYGDMPNNWSPELRGLGRLRFITNAFTRMRFCFPNGQLDMYSKESPEEAPAPLKPWFAIPGPVAEEYSIAFGHWASLEGKGTPEGIYALDTGCCWGGTLTCLRWEDKQYFVQPSNRHKDLGEAAAS
Km (purified protein): 13 ± 5 µM
